# “And” between values parts separate entries of the source, which are not always exact repeats. Identical values can stand only once.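 Compound exposure: 48 hours, 5 concentrations, 96-well plates. Here, GI50 denotes the concentration required for 50% inhibition of growth. TGI is the concentration that stops growth completely.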
# System: NCI-H226 lung
# Assay: NCI-60 cell line screen, 48 h
row,Structure (SMILES),TGI
1,N#CC(N)(C(=O)CCC(=O)Nc1cccc(Cl)c1)c1ccc(Cl)cc1 (stereo not drawn),> 100 µM
2,S=C(Nc1ccccc1)N(/N=C/C=C/c1ccccc1)c1nnc(-c2ccccc2)c(-c2ccccc2)n1,> 100 µM
3,C=C1C(=O)OC2CCN3CC=C(COC(=O)C(C)(O)C4(CO4)C1C)C23 (stereo not drawn),> 100 µM

# System: NCI/ADR-RES ovarian
# Assay: NCI-60 cell line screen, 48 h
Structure (SMILES),GI50,TGI
OC[C@H]1C[C@](O)(c2ccc(Cl)cc2)[C@@H](c2ccc(Cl)cc2)O1,30.3 µM,87.5 µM
C=COCCCOc1ccccc1,> 100 µM,> 100 µM
COc1cc2nc(-c3ccc(Cl)cc3)cc(OCCCN3CCCCC3)c2cc1OC,0.898 µM,> 100 µM
C=C(c1nc2ccc(Cl)cc2[nH]c1=O)C(O)c1ccc(C(O)C(=O)c2nc3ccc(Cl)cc3[nH]c2=O)cc1 (stereo not drawn),–,> 100 µM
O=c1c2sc(=S)n(-c3ccc(F)cc3)c2ncn1Cc1ccc(F)cc1F,> 100 µM,> 100 µM
C=CCCCCC/C=C\[C@H](O)C#CC#C/C=C/CO,23.5 µM,57.3 µM
Cn1cc(CO)c2c1C(=O)C=C(N1CC1)C2=O,0.0291 µM,0.275 µM
CC(C)c1ccc2c(c1)CC[C@@H]1[C@@](C)(C(=O)O)CCC[C@]21C,17.8 µM,57 µM
CC(C)=CC/C=C(/C)[C@H]1CC[C@]2(C)[C@@H]1CC[C@@H]1[C@@]3(C)CCCNC(C)(C)[C@@H]3CC[C@]12C,2.28 µM,5.07 µM
CCCCCCCCCCCCCC1=NC(C)(C)CN1C(C)C,1.67 µM,3.51 µM
COc1ccc(CN2C(=O)/C(=C\C(=O)c3ccc(OCCN4CCCCC4)cc3)c3ccccc32)cc1,3.84 µM,22.5 µM
NC(=O)NC1C(c2ccccc2)=C1c1ccccc1,–,27 µM
Cc1nc2c(-c3cnc(N)nc3)nc(N3CCOCC3)nc2n1C(C)C,–,4.81 µM
CCCCCCNC(=O)c1cc(NCc2cc(O)ccc2O)ccc1O,5.44 µM,78.1 µM
CN1CCN(CCOc2ccc(-c3cnc4c(-c5ccccc5F)cnn4c3)cc2)CC1,2.4 µM,6.42 µM
CN(C)N=Nc1ccc(NC=O)cc1,–,> 100 µM
C=C1C(=O)OC2CCN3CC=C(COC(=O)C(C)(O)C4(CO4)C1C)C23 (stereo not drawn),–,> 100 µM

# System: OVCAR-8 ovarian
# Assay: NCI-60 cell line screen, 48 h
Structure (SMILES),GI50,TGI
OC[C@H]1C[C@](O)(c2ccc(Cl)cc2)[C@@H](c2ccc(Cl)cc2)O1,31.2 µM,91.7 µM
CC(C)N(C(=O)C12C3C4C5(C#N)C3C1(C#N)C5C42I)C(C)C (stereo not drawn),–,> 100 µM
C=COCCCOc1ccccc1,–,> 100 µM
COc1cc2nc(-c3ccc(Cl)cc3)cc(OCCCN3CCCCC3)c2cc1OC,1.77 µM,> 100 µM
COc1ccc2c3c([nH]c2c1[N+](=O)[O-])C(C)=NCC3,–,> 100 µM
C=C(c1nc2ccc(Cl)cc2[nH]c1=O)C(O)c1ccc(C(O)C(=O)c2nc3ccc(Cl)cc3[nH]c2=O)cc1 (stereo not drawn),–,> 100 µM
O=c1c2sc(=S)n(-c3ccc(F)cc3)c2ncn1Cc1ccc(F)cc1F,> 100 µM,> 100 µM
CC(C)(C)CC(C)(C)c1cc2c(O)c(c1)Cc1cc(C(C)(C)CC(C)(C)C)cc(c1O)Cc1cc(C(C)(C)CC(C)(C)C)cc(c1O)Cc1cc(C(C)(C)CC(C)(C)C)cc(c1O)C2,–,> 100 µM
C=CCCCCC/C=C\[C@H](O)C#CC#C/C=C/CO,20.2 µM,52 µM
Cc1cc([N+](=O)[O-])ccc1Nc1cccc(Cl)c1C,–,30.3 µM
Cn1cc(CO)c2c1C(=O)C=C(N1CC1)C2=O,< 0.01 µM,3.58 µM
CC1=C(C(=O)Nc2ccccc2)C(c2ccccc2)C(C(=O)Nc2ccccc2)=C(C)N1,–,> 100 µM
Cc1nn(-c2ccccc2)c2nc(N3CCOCC3)nnc12,–,> 100 µM
CC(C)c1ccc2c(c1)CC[C@@H]1[C@@](C)(C(=O)O)CCC[C@]21C,2.16 µM,7.87 µM
CCOc1ccccc1C=C1c2ccccc2C(=O)c2ccccc21,–,43 µM
O=C(CCn1[nH]c(=O)c(Cl)c(Cl)c1=O)NO,–,> 100 µM
[N-]=[N+]=NC12CC3C4CC5CC3C(C1)C(C5)C4C2,–,> 100 µM
CN(C)c1nc2ccccc2[nH]1,–,> 100 µM
NNC(=S)N/N=C(\CC1OC(=O)c2ccccc21)c1ccccc1O (stereo not drawn),–,> 100 µM
COC(=O)C1=C(O)c2cc(OC)c(OC)cc2C(c2ccc(OC)c(OC)c2)C1 (stereo not drawn),–,> 100 µM

Structure (SMILES),GI50,TGI
COC1(OC)CC2C(=O)N(Cc3ccccc3)C1C(S(=O)(=O)c1ccccc1)C2S(=O)(=O)c1ccccc1 (stereo not drawn),–,23.4 µM
Cc1cc(CC(O)c2ccc(Cl)c(Cl)c2)nc(=O)[nH]1 (stereo not drawn),–,> 100 µM
CCCCCCCCCCCCCC1=NC(C)(C)CN1C(C)C,1.78 µM,3.42 µM
COC(=O)C(=Cc1cc(OC)ccc1OC)C(=O)OC,–,> 100 µM
CC1=NNC(=O)C2CCC(=O)N12 (stereo not drawn),–,> 100 µM
CC(C)c1ccccc1NC(=O)CCc1n[nH]c(=S)o1,–,> 100 µM
CCCCC(C(=O)C(=O)NC1C2CC3CC(C2)CC1C3)C(=O)C(C)C (stereo not drawn),–,> 100 µM
COC(=O)c1cc2c(s1)C(=O)c1ccccc1-2,–,> 100 µM
NC(=O)NC1C(c2ccccc2)=C1c1ccccc1,–,25.5 µM
Cn1c2c(c3ccccc31)C1CCCCCCC1C1C(=O)OC(=O)C21 (stereo not drawn),–,> 100 µM
Cc1ccc(S(=O)(=O)N(CC(=O)O)c2ccccc2)cc1,–,> 100 µM
COc1ccc(C(=O)C(c2ccc(OC)cc2)C2(O)C(=O)Nc3ccc([N+](=O)[O-])cc32)cc1 (stereo not drawn),–,> 100 µM
O=C(/C=C/c1ccccc1O)c1ccccc1O,–,> 100 µM
Cc1nc2c(-c3cnc(N)nc3)nc(N3CCOCC3)nc2n1C(C)C,–,> 5.51 µM and 4.37 µM
CCCCCCNC(=O)c1cc(NCc2cc(O)ccc2O)ccc1O,4.83 µM,36.2 µM
N#CC(N)(C(=O)CCC(=O)Nc1cccc(Cl)c1)c1ccc(Cl)cc1 (stereo not drawn),–,> 100 µM
S=C(Nc1ccccc1)N(/N=C/C=C/c1ccccc1)c1nnc(-c2ccccc2)c(-c2ccccc2)n1,–,> 100 µM
CN1CCN(CCOc2ccc(-c3cnc4c(-c5ccccc5F)cnn4c3)cc2)CC1,2.92 µM,10.6 µM
CN(C)N=Nc1ccc(NC=O)cc1,–,> 100 µM
C=C1C(=O)OC2CCN3CC=C(COC(=O)C(C)(O)C4(CO4)C1C)C23 (stereo not drawn),–,> 100 µM

# System: SF-539 CNS
# Assay: NCI-60 cell line screen, 48 h
Structure (SMILES),GI50,TGI
OC[C@H]1C[C@](O)(c2ccc(Cl)cc2)[C@@H](c2ccc(Cl)cc2)O1,23.3 µM,53.8 µM
CC(C)N(C(=O)C12C3C4C5(C#N)C3C1(C#N)C5C42I)C(C)C (stereo not drawn),–,> 100 µM
C=COCCCOc1ccccc1,–,> 100 µM
COc1ccc2c3c([nH]c2c1[N+](=O)[O-])C(C)=NCC3,–,> 100 µM
C=C(c1nc2ccc(Cl)cc2[nH]c1=O)C(O)c1ccc(C(O)C(=O)c2nc3ccc(Cl)cc3[nH]c2=O)cc1 (stereo not drawn),–,> 100 µM
O=c1c2sc(=S)n(-c3ccc(F)cc3)c2ncn1Cc1ccc(F)cc1F,> 100 µM,> 100 µM
CC(C)(C)CC(C)(C)c1cc2c(O)c(c1)Cc1cc(C(C)(C)CC(C)(C)C)cc(c1O)Cc1cc(C(C)(C)CC(C)(C)C)cc(c1O)Cc1cc(C(C)(C)CC(C)(C)C)cc(c1O)C2,–,> 100 µM
C=CCCCCC/C=C\[C@H](O)C#CC#C/C=C/CO,58.2 µM,> 100 µM
Cn1cc(CO)c2c1C(=O)C=C(N1CC1)C2=O,< 0.01 µM,< 0.01 µM
CC1=C(C(=O)Nc2ccccc2)C(c2ccccc2)C(C(=O)Nc2ccccc2)=C(C)N1,–,> 100 µM
Cc1nn(-c2ccccc2)c2nc(N3CCOCC3)nnc12,–,> 100 µM
CCOc1ccccc1C=C1c2ccccc2C(=O)c2ccccc21,–,5.22 µM
O=C(CCn1[nH]c(=O)c(Cl)c(Cl)c1=O)NO,–,> 100 µM
CC(C)=CC/C=C(/C)[C@H]1CC[C@]2(C)[C@@H]1CC[C@@H]1[C@@]3(C)CCCNC(C)(C)[C@@H]3CC[C@]12C,2.85 µM,9.13 µM
[N-]=[N+]=NC12CC3C4CC5CC3C(C1)C(C5)C4C2,–,> 100 µM
CN(C)c1nc2ccccc2[nH]1,–,> 100 µM
NNC(=S)N/N=C(\CC1OC(=O)c2ccccc21)c1ccccc1O (stereo not drawn),–,43.7 µM
COC(=O)C1=C(O)c2cc(OC)c(OC)cc2C(c2ccc(OC)c(OC)c2)C1 (stereo not drawn),–,> 100 µM
COC1(OC)CC2C(=O)N(Cc3ccccc3)C1C(S(=O)(=O)c1ccccc1)C2S(=O)(=O)c1ccccc1 (stereo not drawn),–,27.3 µM
CCCCCCCCCCCCCC1=NC(C)(C)CN1C(C)C,1.65 µM,3.01 µM
COC(=O)C(=Cc1cc(OC)ccc1OC)C(=O)OC,–,65.2 µM
